From PubChem BioAssay AID1963851 (Molecular Pharmacology Branch, DTP, NCI, 2024)

Tested on: 188146-221-R-J1-PDC complex spheroid viability
Experiment: Anticancer human tumor 188146-221-R-J1-PDC patient-derived colon adenocarcinoma cell line growth inhibition [POLQ]
Details: for IC50: curve of first compound; for viability, T/C: stronger effect = lower value
Protocol: Multicellular complex tumor spheroid response to Polymerase (POL) inhibitors (novobiocin, ART-558, RP6685) in combination with a variety of drugs and investigational agents in selected tumor cell lines
The POL inhibitors (novobiocin, ART-558, and RP6685) were evaluated both individually and in combination with standard of care and investigational anticancer small molecules within a complex spheroid model of solid tumors. . Complex spheroids include a stromal component modeled by human endothelial cells (HUVEC) and fibroblasts modeled by human mesenchymal stem cells (MSCs). The concentration ranges selected for each drug and investigational agent were based upon clinically achievable concentrations if the clinical Cmax of the agent was known.
Compounds. The drugs and investigational agents: novobiocin (NSC847541), ART-558 (NSC835418), RP-6685 (NSC848927), peposertib (NSC802822), ceralasertib (NSC780249), elimusertib (NSC800525), camonsertib (NSC841442), AZD-1390 (NSC803789), olaparib (NSC753686), talazoparib (NSC767125), rucaparib (NSC756644), sotorasib (NSC818433), MRTX-1133 (NSC836407), SN-38 (NSC673596), topotecan (NSC609699), epotoside (NSC141540), doxorubicin (NSC123127), gemcitabine (NSC613327), 5-fluorouracil (NSC19893), paclitaxel (NSC125973), vemurafenib (NSC761431), MSA-2 (NSC828583), SN-011 (NSC837082), adavosertib (NSC754352), prexasertib (NSC758257), carboplatin (NSC241240) and oxaliplatin (NSC266046), were obtained from the National Cancer Institute (NCI) Developmental Therapeutics Program Chemical Repository (21). The FDA-approved anticancer drug set is available from the Developmental Therapeutics Program at https://dtp.cancer.gov/organization/dscb/obtaining/. […] The stock solutions were prepared in dimethyl sulfoxide (DMSO, Sigma-Aldrich, St. Louis, MO, cat. D2650), except for the platinum compounds which were prepared in saline (Quality Biological, Gaithersburg, MD, cat. 114-055-101), at 800-fold the tested concentration and stored at -70 degrees C prior to their use. All drugs and investigational agents were tested over a range starting from a high concentration at or near the clinical Cmax and decreasing in half-log increments. If the clinical Cmax for an agent had not been determined, the highest concentration tested was 10 microM, except for SN-38, which was tested at a high concentration of 1 microM.
Cell Culture. All cells were maintained in an incubator at 37 degrees C and 5% CO2 with 95% humidity. The PDC lines were cultured according to standard operating procedures established by the NCI PDMR (https://pdmr.cancer.gov). Table 3 of the manuscript, lists the cell lines along with the number of the three cell types plated to form the mct-spheroids and media for tumor cell growth. After thawing, all PDC lines, except 997537-175-T-J1-PDC and 415267-285-R-J2-PDC, were cultured in Matrigel-coated flasks prepared with a working solution of 1X Ham's F-12 nutrient mix, without supplementation (Thermo Fisher Scientific, cat. 11765054), 100 U/mL penicillin-streptomycin (Thermo Fisher Scientific, cat. 15140122), and 2.5% Matrigel (Corning Inc., Corning, NY, cat. 354248) for the first three passages. The two PDC lines 997537-175-T-J1-PDC and 415267-285-R-J2-PDC were cultured on uncoated flasks. The 857933-349-R-J2-PDC line was cultured in 6C/Colon 1B media containing advanced DMEM/F-12 (Thermo Fisher Scientific, cat. 12634028), 10 mM HEPES (Thermo Fisher Scientific, cat. 15630080), 1X GlutaMAX supplement (Thermo Fisher Scientific, cat. 35050061), 0.1 mg/mL primocin (InvivoGen, San Diego, CA, cat. ant-pm-2), 10% defined fetal bovine serum, heat inactivated (HyClone Laboratories Inc., Logan, UT, cat. SH30070.03HI), 50% L-WRN conditioned media (ATCC, cat. CRL-3276), 1.25 mM N-Acetyl-L-cysteine (Sigma-Aldrich, cat. A9165), 10 mM nicotinamide (Sigma-Aldrich, cat. N0636), 1X B-27 supplement (Thermo Fisher Scientific, cat. 17504044), 1X N-2 supplement (Thermo Fisher Scientific, cat. […]

[1] = second compound 0.0316 µM, first compound 0.0316 µM
[2] = second compound 0.0316 µM, first compound 0.1 µM
[3] = second compound 0.0316 µM, first compound 0.316 µM
[4] = second compound 0.0316 µM, first compound 1 µM
[5] = second compound 0.0316 µM, first compound 3.16 µM
[6] = second compound 0.0316 µM, first compound 10 µM
[7] = second compound 0.1 µM, first compound 0.0316 µM
[8] = second compound 0.1 µM, first compound 0.1 µM
[9] = second compound 0.1 µM, first compound 0.316 µM
[10] = second compound 0.1 µM, first compound 1 µM
[11] = second compound 0.1 µM, first compound 3.16 µM
[12] = second compound 0.1 µM, first compound 10 µM
[13] = second compound 0.316 µM, first compound 0.0316 µM
[14] = second compound 0.316 µM, first compound 0.1 µM
[15] = second compound 0.316 µM, first compound 0.316 µM
[16] = second compound 0.316 µM, first compound 1 µM
[17] = second compound 0.316 µM, first compound 3.16 µM
[18] = second compound 0.316 µM, first compound 10 µM
[19] = second compound 1 µM, first compound 0.0316 µM
[20] = second compound 1 µM, first compound 0.1 µM
[21] = second compound 1 µM, first compound 0.316 µM
[22] = second compound 1 µM, first compound 1 µM
[23] = second compound 1 µM, first compound 3.16 µM
[24] = second compound 1 µM, first compound 10 µM
[25] = second compound 3.16 µM, first compound 0.0316 µM
[26] = second compound 3.16 µM, first compound 0.1 µM
[27] = second compound 3.16 µM, first compound 0.316 µM
[28] = second compound 3.16 µM, first compound 1 µM
[29] = second compound 3.16 µM, first compound 3.16 µM
[30] = second compound 3.16 µM, first compound 10 µM
[31] = second compound 10 µM, first compound 0.0316 µM
[32] = second compound 10 µM, first compound 0.1 µM
[33] = second compound 10 µM, first compound 0.316 µM
[34] = second compound 10 µM, first compound 1 µM
[35] = second compound 10 µM, first compound 3.16 µM
[36] = second compound 10 µM, first compound 10 µM
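Also: spheroids exposed to compounds for seven days.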
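For viability, T/C in this document: 100% = DMSO vehicle control viability.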

Structure (SMILES): CC1COCCN1c1cc(-c2ccnn2C)c2ccnc(-c3ccn[nH]3)c2n1 (stereo unspecified) + Nc1ccc(C#CCN(C(=O)Cc2ncc(C(F)(F)F)cc2C(F)(F)F)c2ccc(F)cc2)nn1
- IC50 (second compound 0.0316 µM): 0.177 µM
- IC50 (second compound 0.1 µM): 0.228 µM
- IC50 (second compound 0.316 µM): 0.173 µM
- IC50 (second compound 1 µM): 0.142 µM
- IC50 (second compound 3.16 µM): 0.162 µM
- IC50 (second compound 10 µM): 0.176 µM
- viability, T/C [1]: 84.9%
- viability, T/C [2]: 63.2%
- viability, T/C [3]: 36.3%
- viability, T/C [4]: 22.6%
- viability, T/C [5]: 16.3%
- viability, T/C [6]: 14.5%
- viability, T/C [7]: 86.4%
- viability, T/C [8]: 72.8%
- viability, T/C [9]: 40.3%
- viability, T/C [10]: 22.3%
- viability, T/C [11]: 17.2%
- viability, T/C [12]: 12.9%
- viability, T/C [13]: 80%
- viability, T/C [14]: 61.1%
- viability, T/C [15]: 38.3%
- viability, T/C [16]: 20%
- viability, T/C [17]: 14.1%
- viability, T/C [18]: 15.8%
- viability, T/C [19]: 96.3%
- viability, T/C [20]: 54%
- viability, T/C [21]: 40.2%
- viability, T/C [22]: 19.2%
- viability, T/C [23]: 16.2%
- viability, T/C [24]: 15%
- viability, T/C [25]: 89.7%
- viability, T/C [26]: 56.7%
- viability, T/C [27]: 42.6%
- viability, T/C [28]: 19.6%
- viability, T/C [29]: 17.4%
- viability, T/C [30]: 14.2%
- viability, T/C [31]: 77.3%
- viability, T/C [32]: 66.1%
- viability, T/C [33]: 33.2%
- viability, T/C [34]: 19.8%
- viability, T/C [35]: 18.6%
- viability, T/C [36]: 14.7%

Structure (SMILES): CC1COCCN1c1cc(C2(S(C)(=N)=O)CC2)nc(-c2ccnc3[nH]ccc23)n1 (stereo unspecified) + Nc1ccc(C#CCN(C(=O)Cc2ncc(C(F)(F)F)cc2C(F)(F)F)c2ccc(F)cc2)nn1
- IC50 (second compound 0.0316 µM): 4.63 µM
- IC50 (second compound 0.1 µM): 4.5 µM
- IC50 (second compound 0.316 µM): 4.59 µM
- IC50 (second compound 1 µM): 4.55 µM
- IC50 (second compound 3.16 µM): 4.66 µM
- IC50 (second compound 10 µM): 4.11 µM
- viability, T/C [1]: 105%
- viability, T/C [2]: 110%
- viability, T/C [3]: 95.7%
- viability, T/C [4]: 100%
- viability, T/C [5]: 61.2%
- viability, T/C [6]: 27.2%
- viability, T/C [7]: 106%
- viability, T/C [8]: 92.6%
- viability, T/C [9]: 109%
- viability, T/C [10]: 92.1%
- viability, T/C [11]: 60.5%
- viability, T/C [12]: 26.9%
- viability, T/C [13]: 110%
- viability, T/C [14]: 109%
- viability, T/C [15]: 99.7%
- viability, T/C [16]: 101%
- viability, T/C [17]: 61.9%
- viability, T/C [18]: 24.8%
- viability, T/C [19]: 95.1%
- viability, T/C [20]: 89.7%
- viability, T/C [21]: 111%
- viability, T/C [22]: 89.2%
- viability, T/C [23]: 63.3%
- viability, T/C [24]: 22.2%
- viability, T/C [25]: 103%
- viability, T/C [26]: 109%
- viability, T/C [27]: 93.3%
- viability, T/C [28]: 82.7%
- viability, T/C [29]: 65.3%
- viability, T/C [30]: 24.1%
- viability, T/C [31]: 107%
- viability, T/C [32]: 99.6%
- viability, T/C [33]: 101%
- viability, T/C [34]: 90%
- viability, T/C [35]: 58.1%
- viability, T/C [36]: 22.1%

Structure (SMILES): CCc1c2c(nc3ccc(O)cc13)-c1cc3c(c(=O)n1C2)COC(=O)[C@]3(O)CC + Cc1cccc(N(C)C(=O)C2C(O)CCN2c2nc(C)cc(C(F)(F)F)c2C#N)c1
- IC50 (second compound 0.0316 µM): 0.0187 µM
- IC50 (second compound 0.1 µM): 0.0247 µM
- IC50 (second compound 0.316 µM): 0.0243 µM
- IC50 (second compound 1 µM): 0.0238 µM
- IC50 (second compound 3.16 µM): 0.0221 µM
- IC50 (second compound 10 µM): 0.0168 µM
- viability, T/C (second compound 0.0316 µM, first compound 0.00316 µM): 106%
- viability, T/C (second compound 0.0316 µM, first compound 0.01 µM): 64.3%
- viability, T/C [1]: 39.6%
- viability, T/C [2]: 17.9%
- viability, T/C [3]: 11.2%
- viability, T/C [4]: 6.74%
- viability, T/C (second compound 0.1 µM, first compound 0.00316 µM): 102%
- viability, T/C (second compound 0.1 µM, first compound 0.01 µM): 81.4%
- viability, T/C [7]: 39.9%
- viability, T/C [8]: 19.9%
- viability, T/C [9]: 10.1%
- viability, T/C [10]: 8.21%
- viability, T/C (second compound 0.316 µM, first compound 0.00316 µM): 99.1%
- viability, T/C (second compound 0.316 µM, first compound 0.01 µM): 87.7%
- viability, T/C [13]: 38.2%
- viability, T/C [14]: 15.9%
- viability, T/C [15]: 11.5%
- viability, T/C [16]: 6.74%
- viability, T/C (second compound 1 µM, first compound 0.00316 µM): 101%
- viability, T/C (second compound 1 µM, first compound 0.01 µM): 78.2%
- viability, T/C [19]: 40.7%
- viability, T/C [20]: 17.3%
- viability, T/C [21]: 9.53%
- viability, T/C [22]: 8.73%
- viability, T/C (second compound 3.16 µM, first compound 0.00316 µM): 86.1%
- viability, T/C (second compound 3.16 µM, first compound 0.01 µM): 73.7%
- viability, T/C [25]: 39.1%
- viability, T/C [26]: 16.7%
- viability, T/C [27]: 13.6%
- viability, T/C [28]: 8.63%
- viability, T/C (second compound 10 µM, first compound 0.00316 µM): 92.2%
- viability, T/C (second compound 10 µM, first compound 0.01 µM): 65.1%
- viability, T/C [31]: 31.2%
- viability, T/C [32]: 17%
- viability, T/C [33]: 15.2%
- viability, T/C [34]: 9.83%
